Converted amounts (≈) assume the structure as drawn. The source made the active and inactive calls. The rule behind the calls is not given here.
Tests used:
[1] = Inhibition of trypsin
[2] = Inhibition of chymotrypsin at 45 ug/mL

## CC[C@H](C)[C@H](NC(=O)N[C@@H]1CCCCNC(=O)[C@H](Cc2ccccc2)NC(=O)[C@H](C)N(C)C(=O)[C@H](CCc2ccccc2)NC(=O)[C@H]([C@@H](C)CC)NC1=O)C(=O)O [Schizopeptin 791]
[1]
  IC50: 45 µg/mL (≈ 56.8 µM)
[2]
  Activity: inactive

Reference: ChEMBL document CHEMBL1150616, “Schizopeptin 791, a new anabeanopeptin-like cyclic peptide from the cyanobacterium Schizothrix sp” (J Nat Prod, 2002)
